Publication PMC10138554, “Insights into the Microbicidal, Antibiofilm, Antioxidant and Toxicity Profile of New O-Aryl-Carbamoyl-Oxymino-Fluorene Derivatives” (International Journal of Molecular Sciences, 2023)
In brackets after ≈: the same amount, converted by molar mass.

What was measured:
[1] = system: P. aeruginosa ATCC 27892; assay: Flow cytometry (FCM) membrane depolarization, DiBAC4(3); format: cell-based, Pseudomonas aeruginosa; conditions: subinhibitory concentration tested 2.5 mg/mL, DiBAC4, 18–24 h
Method: (§1) The investigation of potential mechanisms of antimicrobial action by flow cytometry (FCM) was performed on microbial cultures obtained after 18–24 h of microbial cell incubation in the presence of subinhibitory concentrations of the analyzed compounds. Thus, microbial suspensions with a density of approximately 10^6 CFU/mL were prepared in sterile saline phosphate buffer from exponentially growing microbial cultures, obtained on a solid culture medium. Subinhibitory concentrations of the compounds were prepared in Muller–Hinton liquid culture medium and inoculated with an equal amount of microbial suspension and incubated for 18–24 h at 37 °C.
(§2) Microbial suspensions inoculated in a liquid medium were used as growth control. After incubation, the DiBAC4 fluorochrome solution [bis-(1,3-dibutylbarbituric acid) trimethinoxonol] Invitrogen/Life Technologies, Carlsbad, was added (0.5 μg/mL).
(§3) Fluorescence intensity (FI) was measured with an Accuri C6 plus flow cytometer in the FITC fluorescence channel. Growth control was used to locate the microbial cell population for fluorescence measurements. DiBAC4 dye was used to detect changes in the microbial membrane potential. […] A twofold increased fluorescence intensity (median fluorescence intensity = MFI) was considered to correspond to the depolarized microbial cells. For each subinhibitory concentration, a coloring index (CI) was calculated which represents the ratio of fluorescence intensity (FI) of treated versus untreated cells.

[2] = system: C. albicans ATCC 90029; assay: as above; format: cell-based, Candida albicans; conditions: subinhibitory concentration tested 2.5 mg/mL, DiBAC4, 18–24 h
Method: as §1, §2, §3

[3] = system: E. faecalis ATCC 29212; assay: Anti-biofilm activity assay, purple violet microtiter method; format: cell-based; conditions: E. faecalis ATCC 29212 biofilm
Method: (§4) The inhibitory activity of the obtained compounds has been assessed on five microbial strains, respectively: E. coli ATCC 25922, P. aeruginosa ATCC 27853, S. aureus ATCC 25923, E. faecalis ATCC 29212 and C. albicans ATCC 90029, in a planktonic and adherent growth state.
The anti-biofilm activity assay was performed by the purple violet microtiter method, as previously described, allowing us to determine the minimal biofilm inhibitory concentration (MBEC). The same range of concentrations, as in the MIC assay, i.e., from 5 to 0.009 mg/mL has been tested.

[4] = system: S. aureus ATCC 25923; assay: MIC assay, serial two-fold microdilution in liquid medium; format: cell-based; conditions: Staphylococcus aureus, ATCC25923; S. aureus ATCC 25923, planktonic, 37 °C, 24 h; read-out: minimum inhibitory concentration (MIC)
Method: as §4
(§5) The MIC assay was performed by the serial two-fold microdilutions in a liquid medium, using a concentration range from 5 to 0.009 mg/mL and microbial suspensions of 0.5 MacFarland density. The wells containing only the microbial culture served as positive control and those containing the sterile culture medium as the negative control. The MIC values were read after incubation at 37 °C for 24 h.

[5] = system: P. aeruginosa ATCC 27853; assay: as above; format: cell-based; conditions: Pseudomonas aeruginosa, ATCC27853; P. aeruginosa ATCC 27853, planktonic, 37 °C, 24 h; read-out: minimum inhibitory concentration (MIC)
Method: as §4, §5

[6] = system: E. faecalis ATCC 29212; assay: as above; format: cell-based; conditions: Enterococcus faecalis, ATCC29212; E. faecalis ATCC 29212, planktonic, 37 °C, 24 h; read-out: minimum inhibitory concentration (MIC)
Method: as §4, §5

[7] = system: C. albicans ATCC 90029; assay: as above; format: cell-based; conditions: Candida albicans, ATCC90029; C. albicans ATCC 90029, planktonic, 37 °C, 24 h; read-out: minimum inhibitory concentration (MIC)
Method: as §4, §5

[8] = system: S. aureus ATCC 25923; assay: Flow cytometry (FCM) membrane depolarization, DiBAC4(3); format: cell-based, Staphylococcus aureus; conditions: for staining index value (SI): S. aureus ATCC 25923, DiBAC4, 18–24 h
Method: as §1, §2, §3

[9] = system: E. coli ATCC 25922; assay: as above; format: cell-based, Escherichia coli; conditions: DiBAC4, 18–24 h
Method: as §1, §2, §3

[10] = system: Artemia franciscana Kellog nauplii; assay: Toxicity on the Artemia franciscana Kellog crustacean species (lethality of nauplii); format: in vivo; conditions: tested concentrations 6.2–100 μg/mL (solubility limit), 24 h
Method: The oocysts (Great Salt Lake, USA) provided by S.K. Trading were grown on artificial seawater medium (Coral Marine, Grotech), dissolved in distilled water with a few minutes of sonication, at 30 g/L concentration. The test was carried out in a 24-well plate, using three replicates. Because of their low solubility, the compounds 1a–d were suspended in the culture medium using sodium alginate (0.045%) (also used a negative control), the testing being carried out at the solubility limit. The concentrations 100, 50, 25, 12.5 and 6.2 μg/mL used for each substance were obtained by successive dilutions starting from the initial suspension. Between 10 and 15 nauplii per well were collected and placed in contact with the test suspensions (1.5 mL/well). All nauplii, dead or alive, were counted and recorded within 24 h of being placed in contact with the tested suspensions. The non-linear modeling of the concentration-lethality relationship was achieved through a four-parameter logistics model (4PL), implemented in several robust variants for estimating parameters in the R package “dr4pl” [78].

[11] = Scavenger activity towards DPPH free radical; format: biochemical; conditions: 30 min; for IC50: linear regression over 25–1000 μM, mean ± SD of three, read-out: IC50 by means of DPPH assay
Method: The DPPH (Sigma-Aldrich, Darmstadt, Germany) solution of 0.1 mM concentration was obtained by dissolving 0.0039 g of free radical in 100 mL ethanol, in a volumetric flask. For all determinations, the DPPH solution was freshly prepared and kept in the dark. Ethanol has been chosen since tested compounds were dissolved in ethanol: DMSO = 99:1 (v/v) mixture.
The analyzed compounds were dissolved in 25 mL of ethanol: DMSO = 99:1 (v/v) mixture in a final concentration of 1000 μM (stock solution), from which several concentrations of 25 μM, 50 μM, 75 μM, 100 μM, 250 μM and 500 μM were obtained by successive dilutions.
The determination of the antioxidant activity was based on the Ohnishi M et al. method, quoted by Germano M.P. et al..
[…] The samples were kept at rest in the dark for 30 min [79, 81]. Ethanol was used as a blank in order to measure the absorbance at 515 nm (Jasco V-530 spectrophotometer, Jasco, Japan).
The following formula was used to determine DPPH free radical scavenger activity (%): Inhibition %=Acontrol−Asample/Acontrol×100 where, A = absorbance of the 0.1 mM DPPH solution in the absence (control)/presence (sample) of tested compounds after 30 min.
For both the above-mentioned methods, the antioxidant activity was expressed as IC50 values (μM) which represent the concentration of each compound for which the scavenging activity of free radicals is 50%. […]

[12] = subinhibitory concentration tested 2.5 mg/mL
[13] = subinhibitory concentration tested 1.25 mg/mL

## O=C(Nc1ccccc1)ON=C1c2ccccc2-c2ccccc21 [Compound 1a, 9-(phenylcarbamoyloxymino)fluoren]
[1]
  staining index value (SI): 6.68
[2]
  staining index value (SI): 4.94
[3]
  minimum biofilm inhibitory concentration (MBIC): 1.25 mg/mL
[4]
  MIC: 2500 µg/mL (≈ 7.95 mM)
[5]
  MIC: 2500 µg/mL (≈ 7.95 mM)
[6]
  MIC: 2500 µg/mL (≈ 7.95 mM)
[7]
  MIC: 2500 µg/mL (≈ 7.95 mM)
[8]; [12]
  staining index value (SI): 3.5
[9]; [13]
  staining index value (SI): 80.7
[10]
  toxicity (in words): not toxic
[11]; at 25 μM
  DPPH free radical scavenger capacity: 12.66%
[11]; at 1000 μM
  DPPH free radical scavenger capacity: 19.81%
[11]
  IC50: 5.7352 ± 8.28e-05 mM

## Cc1cccc(NC(=O)ON=C2c3ccccc3-c3ccccc32)c1 [Compound 1b, 9-((3-methyl-phenyl)carbamoyloximino)fluoren]
[1]
  staining index value (SI): 6.5
[2]
  staining index value (SI): 2.82
[3]
  minimum biofilm inhibitory concentration (MBIC): 1.25 mg/mL
[4]
  MIC: 2500 µg/mL (≈ 7.61 mM)
[5]
  MIC: 2500 µg/mL (≈ 7.61 mM)
[6]
  MIC: 10000 µg/mL (≈ 30.5 mM)
[7]
  MIC: 5000 µg/mL (≈ 15.2 mM)
[8]; [12]
  staining index value (SI): 8.17
[9]; [12]
  staining index value (SI): 10.2
[10]
  toxicity (in words): not toxic
[11]; at 1000 μM
  DPPH free radical scavenger capacity: 16.29%
[11]
  IC50: 12.263 ± 5.74e-05 mM

## O=C(Nc1cccc(Cl)c1)ON=C1c2ccccc2-c2ccccc21 [Compound 1c, 9-((3-chloro-phenyl)carbamoyloxymino)fluoren]
[1]
  staining index value (SI): 2.38
[3]
  minimum biofilm inhibitory concentration (MBIC): 0.312 mg/mL
[4]
  MIC: 2500 µg/mL (≈ 7.17 mM)
[5]
  MIC: 2500 µg/mL (≈ 7.17 mM)
[6]
  MIC: 5000 µg/mL (≈ 14.3 mM)
[7]
  MIC: 5000 µg/mL (≈ 14.3 mM)
[8]; S. aureus ATCC 25923, subinhibitory concentration
  changes in the membrane potential: did not cause changes
[8]; [12]
  staining index value (SI): 0.19
[9]; [13]
  staining index value (SI): 3.2
[10]
  toxicity (in words): not toxic
[11]; at 1000 μM
  DPPH free radical scavenger capacity: 24.64%
[11]
  IC50: 5.208 ± 0.000124 mM

## O=C(Nc1ccc(Cl)c(Cl)c1)ON=C1c2ccccc2-c2ccccc21 [Compound 1d, 9-((3,4-dichloro-phenyl)carbamoyloxymino)fluoren]
[1]
  staining index value (SI): 20.45
[2]
  staining index value (SI): 20.21
[3]
  minimum biofilm inhibitory concentration (MBIC): 1.25 mg/mL
[4]
  MIC: 156 µg/mL (≈ 0.407 mM)
[5]
  MIC: 2500 µg/mL (≈ 6.52 mM)
[6]
  MIC: 5000 µg/mL (≈ 13 mM)
[7]
  MIC: 5000 µg/mL (≈ 13 mM)
[8]; [13]
  staining index value (SI): 4.2
[9]; [13]
  staining index value (SI): 173.3
[10]
  toxicity (in words): moderate toxicity
